Where two headings read alike, the source gives them in different places.
Key:
SNB-19 = assay: NCI DTP 60 cell line screen, SRB; settings: for GI50 / CC50: Homo sapiens, SNB-19, 48 h; for CC50: read-out: LC50; for TGI: SNB-19 (CNS Cancer), 48 h, SRB
EKVX = assay: cells; settings: Homo sapiens, 48 h; for CC50: read-out: LC50
U251 = assay: cells; settings: Homo sapiens, U-251, 48 h; for CC50: read-out: LC50
786-0 = 786-0 (Renal Cancer), 48 h, SRB
HCT-116 [1] = settings: HCT-116 (Colon Cancer), 48 h, SRB
HCT-116 [2] = assay: cells; settings: Homo sapiens, HCT-116, 48 h; for CC50: read-out: LC50
Melanoma subpanel = assay: cells; settings: for GI50 / CC50: Homo sapiens; for GI50: read-out: MG_MID, GI50; for CC50: read-out: MG_MID, LC50; for MG_MID, TGI: Melanoma panel mean
Method: (§1) At the first stage of biological activity study, the antitumor activity screening of the selected compounds 2b, 2c, 2f, 2h, and 2j was performed according to the NCI DTP (USA) standard protocol at the concentrations ranging from 10^−4 to 10^−8 M toward 60 tumor cell lines. The percentage of growth was evaluated spectrophotometrically versus controls not treated with test agents after 48 h exposure and using SRB protein assay to estimate cell viability or growth. Dose–response parameters were calculated for each cell line: GI50—molar concentration of the compound that inhibits 50% net cell growth; TGI—molar concentration of the compound leading to the total inhibition; and LC50—molar concentration of the compound leading to 50% net cell death. Furthermore, mean graph midpoints (MG_MID) were calculated for each of the parameters, giving an average activity parameter over all cell lines for the tested compound. For the MG_MID calculation, insensitive cell lines were included with the highest concentration tested.
(§2) The selectivity index (SI) obtained by dividing the full panel MG-MID (mM) of the tested compound by their individual subpanel MG-MID (mM) was considered as a measure of selectivity of anticancer activity (Table 3).
(§3) Primary anticancer assay was performed on a panel of approximately sixty human tumor cell lines derived from nine neoplastic diseases, in accordance with the protocol of the Drug Evaluation Branch, National Cancer Institute, Bethesda. Tested compounds were added to the culture at a single concentration (10^−5 M) and the cultures were incubated for 48 h. End point determinations were made with a protein binding dye, sulforhodamine B (SRB). […] The percentage growth was evaluated spectrophotometrically versus controls not treated with test agents.
(§4) Dose–response parameters (GI50, TGI, LC50) were calculated for each compound. […] The drug concentration resulting in total growth inhibition (TGI) was calculated from Ti = Tz. The LC50 (concentration of drug resulting in a 50% reduction in the measured protein at the end of the drug treatment as compared to that at the beginning) indicating a net loss of cells following treatment was calculated from [(Ti − Tz)/Tz] × 100 = −50 (2). Values were calculated for each of these parameters if the level of activity was reached; however, if the effect was not reached or was excessive, the value for that parameter was expressed as more or less than the maximum or minimum concentration tested.

Renal Cancer subpanel = assay: cells; settings: for GI50 / CC50: Homo sapiens; for GI50: read-out: MG_MID, GI50; for CC50: read-out: MG_MID, LC50; for MG_MID, TGI: Renal Cancer panel mean
Method: as §1, §2, §3, §4

Colon Cancer subpanel = assay: cells; settings: for MG_MID, TGI: Colon Cancer panel mean; for GI50 / CC50: Homo sapiens; for GI50: read-out: MG_MID, GI50; for CC50: read-out: MG_MID, LC50
Method: as §1, §2, §3, §4

Breast Cancer subpanel = assay: cells; settings: for MG_MID, TGI: Breast Cancer panel mean; for GI50 / CC50: Homo sapiens; for GI50: read-out: MG_MID, GI50; for CC50: read-out: MG_MID, LC50
Method: as §1, §2, §3, §4

Prostate Cancer subpanel = assay: cells; settings: for GI50 / CC50: Homo sapiens; for GI50: read-out: MG_MID, GI50; for CC50: read-out: MG_MID, LC50; for MG_MID, TGI: Prostate Cancer panel mean
Method: as §1, §2, §3, §4

Leukemia subpanel = assay: cells; settings: for GI50 / CC50: Homo sapiens; for GI50: read-out: MG_MID, GI50; for CC50: read-out: MG_MID, LC50; for MG_MID, TGI: Leukemia panel mean
Method: as §1, §2, §3, §4

[3] = test system: Non-Small Cell Lung Cancer subpanel; assay: cells; settings: for GI50 / CC50: Homo sapiens; for GI50: read-out: MG_MID, GI50; for CC50: read-out: MG_MID, LC50; for MG_MID, TGI: Non-Small Cell Lung Cancer panel mean
Method: as §1, §2, §3, §4

CNS Cancer subpanel = assay: cells; settings: for MG_MID, TGI: CNS Cancer panel mean; for GI50 / CC50: Homo sapiens; for GI50: read-out: MG_MID, GI50; for CC50: read-out: MG_MID, LC50
Method: as §1, §2, §3, §4

Ovarian Cancer subpanel = assay: cells; settings: for GI50 / CC50: Homo sapiens; for GI50: read-out: MG_MID, GI50; for CC50: read-out: MG_MID, LC50; for MG_MID, TGI: Ovarian Cancer panel mean
Method: as §1, §2, §3, §4

NCI-H23 = assay: cells; settings: Homo sapiens, NCI-H23, 48 h; for CC50: read-out: LC50
HOP-92 = assay: NCI DTP 60 cell line screen, SRB; settings: for TGI: HOP-92 (Non-Small Cell Lung Cancer), 48 h, SRB; for GI50 / CC50: Homo sapiens, HOP-92, 48 h; for CC50: read-out: LC50
KM12 = assay: cells; settings: Homo sapiens, KM12, 48 h; for CC50: read-out: LC50
SNB-75 = SNB-75 (CNS Cancer), 48 h, SRB
HOP-62 = HOP-62 (Non-Small Cell Lung Cancer), 48 h, SRB
T-47D = T-47D (Breast Cancer), 48 h, SRB
[4] = full panel MG_MID / Melanoma subpanel MG_MID
[5] = full panel MG_MID / Renal Cancer subpanel MG_MID
[6] = full panel MG_MID / Colon Cancer subpanel MG_MID
[7] = full panel MG_MID / Breast Cancer subpanel MG_MID
[8] = full panel MG_MID / Prostate Cancer subpanel MG_MID
[9] = full panel MG_MID / Leukemia subpanel MG_MID
[10] = full panel MG_MID / Non-Small Cell Lung Cancer subpanel MG_MID
[11] = full panel MG_MID / CNS Cancer subpanel MG_MID
[12] = full panel MG_MID / Ovarian Cancer subpanel MG_MID

## O=C(O)CCN1C(=O)/C(=C/C(Cl)=C/c2ccc([N+](=O)[O-])cc2)SC1=S [Compound 2h, 3-{5-[(Z,2Z)-2-Chloro-3-(4-nitrophenyl)-2-propenylidene]-4-oxo-2-thioxothiazolidin-3-yl}propanoic acid]
SNB-19
  GI50: 0.658 µM
  CC50: 83.7 µM
  TGI: 26.3 µM
EKVX
  GI50: 0.334 µM
  CC50: 55.6 µM
U251
  GI50: 0.149 µM
  CC50: > 100 µM
786-0
  TGI: 2.47 µM
HCT-116 [1]
  TGI: 1.19 µM
HCT-116 [2]
  GI50: 0.27 µM
  CC50: > 100 µM
Melanoma subpanel
  SI (selectivity index), GI50: 0.64
  SI (selectivity index), TGI: 0.96
  GI50: 2.45 µM
  CC50: 53.1 µM
  MG_MID, TGI: 13.9 µM
Melanoma subpanel; [4]
  SI (selectivity index), LC50: 1.22
Renal Cancer subpanel
  SI (selectivity index), TGI: 2.77
  GI50: 0.99 µM
  CC50: 23.8 µM
  MG_MID, TGI: 4.81 µM
Renal Cancer subpanel; [5]
  SI (selectivity index), LC50: 2.73
Colon Cancer subpanel
  SI (selectivity index), GI50: 3.43
  SI (selectivity index), TGI: 0.57
  MG_MID, TGI: 23.3 µM
  GI50: 0.458 µM
  CC50: > 100 µM
Colon Cancer subpanel; [6]
  SI (selectivity index), LC50: <0.65
Breast Cancer subpanel
  SI (selectivity index), GI50: 2.63
  SI (selectivity index), TGI: 0.63
  MG_MID, TGI: 21.1 µM
  GI50: 0.598 µM
  CC50: 49.6 µM
Breast Cancer subpanel; [7]
  SI (selectivity index), LC50: 1.31
Prostate Cancer subpanel
  SI (selectivity index), GI50: 2.77
  SI (selectivity index), TGI: 1.55
  GI50: 0.567 µM
  CC50: 47.1 µM
  MG_MID, TGI: 8.59 µM
Prostate Cancer subpanel; [8]
  SI (selectivity index), LC50: 1.38
Leukemia subpanel
  SI (selectivity index), GI50: 10.83
  SI (selectivity index), TGI: 2.45
  GI50: 0.145 µM
  CC50: > 100 µM
  MG_MID, TGI: 5.42 µM
Leukemia subpanel; GI50 (normal blood lymphocyte)/GI50 (Leukemia Panel)
  TI (Therapeutic Index): 376.14
Leukemia subpanel; [9]
  SI (selectivity index), LC50: <0.65
[3]
  SI (selectivity index), GI50: 0.59
  SI (selectivity index), TGI: 1.38
  GI50: 2.65 µM
  CC50: 61.4 µM
  MG_MID, TGI: 9.61 µM
[3]; [10]
  SI (selectivity index), LC50: 1.06
CNS Cancer subpanel
  SI (selectivity index), GI50: 0.50
  SI (selectivity index), TGI: 0.75
  MG_MID, TGI: 17.7 µM
  GI50: 3.13 µM
  CC50: 84.9 µM
CNS Cancer subpanel; [11]
  SI (selectivity index), LC50: 0.77
Ovarian Cancer subpanel
  SI (selectivity index), GI50: 0.74
  SI (selectivity index), TGI: 1.05
  GI50: 2.13 µM
  CC50: 68.7 µM
  MG_MID, TGI: 12.7 µM
Ovarian Cancer subpanel; [12]
  SI (selectivity index), LC50: 0.95
NCI-H23
  GI50: 1.44 µM
  CC50: 7.19 µM
HOP-92
  TGI: 18.3 µM
  GI50: 4.81 µM
  CC50: 50.7 µM
KM12
  GI50: 0.639 µM
  CC50: > 100 µM
SNB-75
  TGI: 46.0 µM
HOP-62
  TGI: 19.9 µM
T-47D
  TGI: > 100 µM

## O=C1NC(=S)S/C1=C\C(Cl)=C\c1ccc([N+](=O)[O-])cc1 [Compound 2b, 5-[(Z,2Z)-2-Chloro-3-(4-nitrophenyl)-2-propenylidene]-2-thioxo-4-thiazolidinone]
SNB-19
  GI50: 8.1 µM
  CC50: > 50 µM
  TGI: 21.4 µM
EKVX
  GI50: 2.76 µM
  CC50: > 50 µM
U251
  GI50: 3.09 µM
  CC50: 22.1 µM
786-0
  TGI: 18.8 µM
HCT-116 [1]
  TGI: 11.0 µM
HCT-116 [2]
  GI50: 2.93 µM
  CC50: 33.7 µM
Melanoma subpanel
  GI50: 5.57 µM
  CC50: 36.8 µM
  MG_MID, TGI: 16.1 µM
Melanoma subpanel; [4]
  SI (selectivity index), GI50: 0.86
  SI (selectivity index), LC50: 1.18
  SI (selectivity index), TGI: 1.26
Renal Cancer subpanel
  GI50: 6.23 µM
  CC50: 42.9 µM
  MG_MID, TGI: 18.7 µM
Renal Cancer subpanel; [5]
  SI (selectivity index), GI50: 0.77
  SI (selectivity index), LC50: 1.01
  SI (selectivity index), TGI: 1.09
Colon Cancer subpanel
  MG_MID, TGI: 11.5 µM
  GI50: 3.27 µM
  CC50: 35.4 µM
Colon Cancer subpanel; [6]
  SI (selectivity index), GI50: 1.46
  SI (selectivity index), LC50: 1.23
  SI (selectivity index), TGI: 1.77
Breast Cancer subpanel
  MG_MID, TGI: 28.4 µM
  GI50: 4.38 µM
  CC50: 46.7 µM
Breast Cancer subpanel; [7]
  SI (selectivity index), GI50: 1.09
  SI (selectivity index), LC50: 0.93
  SI (selectivity index), TGI: 0.71
Prostate Cancer subpanel
  GI50: 5.89 µM
  CC50: 39.2 µM
  MG_MID, TGI: 32.1 µM
Prostate Cancer subpanel; [8]
  SI (selectivity index), GI50: 0.81
  SI (selectivity index), LC50: 1.11
  SI (selectivity index), TGI: 0.63
Leukemia subpanel
  GI50: 1.51 µM
  CC50: > 50 µM
  MG_MID, TGI: 20.2 µM
Leukemia subpanel; [9]
  SI (selectivity index), GI50: 3.17
  SI (selectivity index), LC50: <0.87
  SI (selectivity index), TGI: 1.00
[3]
  GI50: 3.79 µM
  CC50: 48.6 µM
  MG_MID, TGI: 29.7 µM
[3]; [10]
  SI (selectivity index), GI50: 1.26
  SI (selectivity index), LC50: 0.90
  SI (selectivity index), TGI: 0.68
CNS Cancer subpanel
  MG_MID, TGI: 22.4 µM
  GI50: 6.98 µM
  CC50: 45.4 µM
CNS Cancer subpanel; [11]
  SI (selectivity index), GI50: 0.69
  SI (selectivity index), LC50: 0.96
  SI (selectivity index), TGI: 0.91
Ovarian Cancer subpanel
  GI50: 6.68 µM
  CC50: 42.8 µM
  MG_MID, TGI: 21.0 µM
Ovarian Cancer subpanel; [12]
  SI (selectivity index), GI50: 0.72
  SI (selectivity index), LC50: 1.02
  SI (selectivity index), TGI: 0.97
NCI-H23
  GI50: 3.27 µM
  CC50: 45.5 µM
HOP-92
  TGI: > 50 µM
  GI50: 8.48 µM
  CC50: > 50 µM
KM12
  GI50: 5.27 µM
  CC50: 40.4 µM
SNB-75
  TGI: 23.5 µM
HOP-62
  TGI: 33.1 µM
T-47D
  TGI: > 50 µM

From paper PMC8161026, “Synthesis and Anticancer Activity Evaluation of 5-[2-Chloro-3-(4-nitrophenyl)-2-propenylidene]-4-thiazolidinones” (Molecules, 2021)
